In PubChem BioAssay (NCI):
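Step 1: Grow cells in 96-well plates. Step 2: Expose to compound for 48 hours at 5 concentrations. Step 3: Interpolate endpoints linearly; if unreached, use highest concentration. Abbreviation: GI50, concentration required for 50% inhibition of growth. TGI is the concentration that stops growth completely.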

Key:
Assay in all cases: growth of human tumour cells (NCI), 48 h
OVCAR-3 ovarian = system: OVCAR-3 ovarian
U251 CNS = system: U251 CNS
CAKI-1 renal = system: CAKI-1 renal
RXF 393 renal = system: RXF 393 renal
K-562 leukemia = system: K-562 leukemia
NCI-H23 lung = system: NCI-H23 lung
UACC-257 melanoma = system: UACC-257 melanoma
NCI-H226 lung = system: NCI-H226 lung
HOP-62 NSCLC = system: HOP-62 NSCLC
NCI-H522 lung = system: NCI-H522 lung
DU-145 prostate = system: DU-145 prostate
HS 578T breast = system: HS 578T breast
OVCAR-5 ovarian = system: OVCAR-5 ovarian
SN12C renal = system: SN12C renal
SK-MEL-2 melanoma = system: SK-MEL-2 melanoma
M14 melanoma = system: M14 melanoma
SK-OV-3 ovarian = system: SK-OV-3 ovarian
LOX IMVI melanoma = system: LOX IMVI melanoma
A549 NSCLC = system: A549 NSCLC
SNB-19 CNS = system: SNB-19 CNS
MALME-3M melanoma = system: MALME-3M melanoma
IGROV1 ovarian = system: IGROV1 ovarian
NCI/ADR-RES ovarian = system: NCI/ADR-RES ovarian
SNB-75 CNS = system: SNB-75 CNS
HT29 colon = system: HT29 colon
HCT-116 colon = system: HCT-116 colon
SW-620 colon = system: SW-620 colon
KM12 colon = system: KM12 colon
SK-MEL-28 melanoma = system: SK-MEL-28 melanoma
MCF7 breast = system: MCF7 breast
OVCAR-4 ovarian = system: OVCAR-4 ovarian
SF-268 CNS = system: SF-268 CNS
MOLT-4 leukemia = system: MOLT-4 leukemia
MDA-MB-435 = system: MDA-MB-435
SF-539 CNS = system: SF-539 CNS
CCRF-CEM leukemia = system: CCRF-CEM leukemia
A498 renal = system: A498 renal
786-0 renal = system: 786-0 renal
SF-295 CNS = system: SF-295 CNS
ACHN renal = system: ACHN renal
PC-3 prostate = system: PC-3 prostate
MDA-MB-231 breast = system: MDA-MB-231 breast
COLO 205 colon = system: COLO 205 colon
HCC-2998 colon = system: HCC-2998 colon
EKVX NSCLC = system: EKVX NSCLC
OVCAR-8 ovarian = system: OVCAR-8 ovarian
TK-10 renal = system: TK-10 renal
UO-31 renal = system: UO-31 renal
HL-60(TB) leukemia = system: HL-60(TB) leukemia
RPMI-8226 leukemia = system: RPMI-8226 leukemia
BT-549 breast = system: BT-549 breast
NCI-H460 lung = system: NCI-H460 lung
UACC-62 melanoma = system: UACC-62 melanoma
T-47D breast = system: T-47D breast
HOP-92 NSCLC = system: HOP-92 NSCLC
SK-MEL-5 melanoma = system: SK-MEL-5 melanoma
HCT-15 colon = system: HCT-15 colon

N=C(N)CCCCCCCCC(=N)N
GI50 (OVCAR-3 ovarian): 34.1 µM | TGI (OVCAR-3 ovarian): > 100 µM | GI50 (U251 CNS): 8.08 µM | TGI (U251 CNS): > 100 µM | GI50 (CAKI-1 renal): 7.37 µM | TGI (CAKI-1 renal): > 100 µM | GI50 (RXF 393 renal): > 100 µM | TGI (RXF 393 renal): > 100 µM | GI50 (K-562 leukemia): 19.7 µM | TGI (K-562 leukemia): > 100 µM | GI50 (NCI-H23 lung): 5.11 µM | TGI (NCI-H23 lung): 70.4 µM | GI50 (UACC-257 melanoma): > 100 µM | TGI (UACC-257 melanoma): > 100 µM | GI50 (NCI-H226 lung): 15.7 µM | TGI (NCI-H226 lung): > 100 µM | GI50 (HOP-62 NSCLC): 30.9 µM | TGI (HOP-62 NSCLC): > 100 µM | GI50 (NCI-H522 lung): 41.4 µM | TGI (NCI-H522 lung): > 100 µM | GI50 (DU-145 prostate): 20.8 µM | TGI (DU-145 prostate): > 100 µM | GI50 (HS 578T breast): 29.2 µM | TGI (HS 578T breast): > 100 µM | GI50 (OVCAR-5 ovarian): 26.4 µM | TGI (OVCAR-5 ovarian): > 100 µM | GI50 (SN12C renal): 25.7 µM | TGI (SN12C renal): > 100 µM | GI50 (SK-MEL-2 melanoma): > 100 µM | TGI (SK-MEL-2 melanoma): > 100 µM | GI50 (M14 melanoma): 56.7 µM | TGI (M14 melanoma): > 100 µM | GI50 (SK-OV-3 ovarian): 22.1 µM | TGI (SK-OV-3 ovarian): > 100 µM | GI50 (LOX IMVI melanoma): 31.8 µM | TGI (LOX IMVI melanoma): > 100 µM | GI50 (A549 NSCLC): 6.6 µM | TGI (A549 NSCLC): > 100 µM | GI50 (SNB-19 CNS): 22.5 µM | TGI (SNB-19 CNS): > 100 µM | GI50 (MALME-3M melanoma): 39.9 µM | TGI (MALME-3M melanoma): > 100 µM | GI50 (IGROV1 ovarian): 52.9 µM | TGI (IGROV1 ovarian): > 100 µM | GI50 (NCI/ADR-RES ovarian): 14.8 µM | TGI (NCI/ADR-RES ovarian): > 100 µM | GI50 (SNB-75 CNS): 29.1 µM | TGI (SNB-75 CNS): > 100 µM | GI50 (HT29 colon): 26.3 µM | TGI (HT29 colon): > 100 µM | GI50 (HCT-116 colon): 22.8 µM | TGI (HCT-116 colon): > 100 µM | GI50 (SW-620 colon): 32.5 µM | TGI (SW-620 colon): > 100 µM | GI50 (KM12 colon): 21.1 µM | TGI (KM12 colon): > 100 µM | GI50 (SK-MEL-28 melanoma): 58.1 µM | TGI (SK-MEL-28 melanoma): > 100 µM | GI50 (MCF7 breast): 25.7 µM | TGI (MCF7 breast): > 100 µM | GI50 (OVCAR-4 ovarian): 44.4 µM | TGI (OVCAR-4 ovarian): > 100 µM | GI50 (SF-268 CNS): 42.6 µM | TGI (SF-268 CNS): > 100 µM | GI50 (MOLT-4 leukemia): 46.4 µM | TGI (MOLT-4 leukemia): > 100 µM | GI50 (MDA-MB-435): > 100 µM | TGI (MDA-MB-435): > 100 µM | GI50 (SF-539 CNS): 35.4 µM | TGI (SF-539 CNS): > 100 µM | GI50 (CCRF-CEM leukemia): 44.6 µM | TGI (CCRF-CEM leukemia): > 100 µM | GI50 (A498 renal): 11.6 µM | TGI (A498 renal): 68.5 µM | GI50 (786-0 renal): > 100 µM | TGI (786-0 renal): > 100 µM | GI50 (SF-295 CNS): 23.5 µM | TGI (SF-295 CNS): 81.3 µM | GI50 (ACHN renal): > 100 µM | TGI (ACHN renal): > 100 µM | GI50 (PC-3 prostate): 37 µM | TGI (PC-3 prostate): > 100 µM | GI50 (MDA-MB-231 breast): 63.3 µM | TGI (MDA-MB-231 breast): > 100 µM | GI50 (COLO 205 colon): 7.86 µM | TGI (COLO 205 colon): 20.9 µM | GI50 (HCC-2998 colon): 28.5 µM | TGI (HCC-2998 colon): > 100 µM | GI50 (EKVX NSCLC): 9.51 µM | TGI (EKVX NSCLC): > 100 µM | GI50 (OVCAR-8 ovarian): 10.9 µM | TGI (OVCAR-8 ovarian): > 100 µM | GI50 (TK-10 renal): 32.2 µM | TGI (TK-10 renal): > 100 µM | GI50 (UO-31 renal): 18.2 µM | TGI (UO-31 renal): > 100 µM | GI50 (HL-60(TB) leukemia): 29.5 µM | TGI (HL-60(TB) leukemia): > 100 µM | GI50 (RPMI-8226 leukemia): 31.1 µM | TGI (RPMI-8226 leukemia): > 100 µM | GI50 (BT-549 breast): 27.2 µM | TGI (BT-549 breast): > 100 µM | GI50 (NCI-H460 lung): 18.8 µM | TGI (NCI-H460 lung): > 100 µM | GI50 (UACC-62 melanoma): 64.8 µM | TGI (UACC-62 melanoma): > 100 µM | GI50 (T-47D breast): 25 µM | TGI (T-47D breast): > 100 µM | GI50 (HOP-92 NSCLC): 19.1 µM | TGI (HOP-92 NSCLC): > 100 µM | GI50 (SK-MEL-5 melanoma): 38.2 µM | TGI (SK-MEL-5 melanoma): > 100 µM | GI50 (HCT-15 colon): 47.2 µM | TGI (HCT-15 colon): > 100 µM
